Measured values reported in ChEMBL document CHEMBL1201862, “PubChem BioAssay data set” (2004).
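Step 1: Grow cells in 96-well plates. Step 2: Expose to compound for 48 hours at 5 concentrations. Step 3: Interpolate endpoints linearly; if unreached, use highest concentration. GI50 = concentration required for 50% inhibition of growth.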 Active and inactive are the calls of the source. No stated cut-off is given here; in the data, active = GI50 up to about 1.1 µM and inactive = higher.

Legend:
Test in all cases: DTP human tumour cell line panel, 48 h
HOP-92 = tested on: HOP-92
HCT-15 = tested on: HCT-15
TK-10 = tested on: TK-10
KM12 = tested on: KM12
SNB-19 = tested on: SNB-19
SK-MEL-5 = tested on: SK-MEL-5
HL-60 = tested on: HL-60
COLO 205 = tested on: COLO 205
CAKI-1 = tested on: CAKI-1
SF-295 = tested on: SF-295
NCI-H23 = tested on: NCI-H23
MDA-MB-435 = tested on: MDA-MB-435
UO-31 = tested on: UO-31
SNB-75 = tested on: SNB-75
MDA-N = tested on: MDA-N
NCI-H226 = tested on: NCI-H226
HT-29 = tested on: HT-29
NCI-H522 = tested on: NCI-H522
786-0 = tested on: 786-0
NCI-H460 = tested on: NCI-H460

Row | Structure (SMILES) | GI50 (HOP-92) | GI50 (HCT-15) | GI50 (TK-10) | GI50 (KM12) | GI50 (SNB-19) | GI50 (SK-MEL-5) | GI50 (HL-60) | GI50 (COLO 205) | GI50 (CAKI-1) | GI50 (SF-295) | GI50 (NCI-H23) | GI50 (MDA-MB-435) | GI50 (UO-31) | GI50 (SNB-75) | GI50 (MDA-N) | GI50 (NCI-H226) | GI50 (HT-29) | GI50 (NCI-H522) | GI50 (786-0) | GI50 (NCI-H460)
1 | CCn1c2c(c3ccccc3c1=O)C(=O)c1ccccc1-2 | > 100 µM (inactive) | > 100 µM | > 100 µM (inactive) | > 100 µM (inactive) | > 100 µM (inactive) | 50.1 µM (inactive) | > 100 µM (inactive) | > 100 µM (inactive) | > 100 µM (inactive) | > 100 µM (inactive) | > 100 µM (inactive) | > 100 µM (inactive) | > 100 µM (inactive) | > 100 µM (inactive) | > 100 µM (inactive) | > 100 µM (inactive) | > 100 µM (inactive) | > 100 µM (inactive) | > 100 µM (inactive) | –
2 | Cc1c2c(nc3ccccc13)C(=O)c1cccnc1C2=O | 65.5 µM (inactive) | 10.9 µM | > 100 µM (inactive) | 14.9 µM (inactive) | 16.3 µM (inactive) | 0.381 µM (active) | 15.1 µM (inactive) | 17.1 µM (inactive) | – | 12.4 µM (inactive) | 6.46 µM (inactive) | 1.79 µM (inactive) | 15.2 µM (inactive) | 11.1 µM (inactive) | 1.77 µM (inactive) | 18.9 µM (inactive) | 9.84 µM (inactive) | 6.87 µM (inactive) | 33.3 µM (inactive) | 1.96 µM (inactive)
3 | CSc1nc(Cl)c(Br)c(Nc2cnc(O)nc2O)n1 | 13.1 µM (inactive) | 7.41 µM | 14.7 µM (inactive) | 22.8 µM (inactive) | 20.2 µM (inactive) | 19.6 µM (inactive) | 2.06 µM (inactive) | 16.8 µM (inactive) | 1.79 µM (inactive) | 18.9 µM (inactive) | 17.3 µM (inactive) | 27.5 µM (inactive) | 20.3 µM (inactive) | 17.7 µM (inactive) | 23 µM (inactive) | 20.1 µM (inactive) | 15.8 µM (inactive) | 1.87 µM (inactive) | 13.4 µM (inactive) | –
4 | COC(=O)/C(=C\Nc1cccc(C)n1)S(=O)(=O)c1ccc(C)cc1 | 54.5 µM (inactive) | 45.3 µM | 96.2 µM (inactive) | 35.5 µM (inactive) | 39.2 µM (inactive) | 36.8 µM (inactive) | 20.7 µM (inactive) | 22.2 µM (inactive) | – | > 100 µM (inactive) | 40.6 µM (inactive) | 39 µM (inactive) | 36.4 µM (inactive) | 71 µM (inactive) | 30.1 µM (inactive) | 36.5 µM (inactive) | 47.4 µM (inactive) | 66.4 µM (inactive) | > 100 µM (inactive) | 61.7 µM (inactive)
5 | O=c1[nH]c(=O)n(COCCOCc2ccccc2)cc1Nc1ccccc1 | > 100 µM (inactive) | > 100 µM | > 100 µM (inactive) | > 100 µM (inactive) | > 100 µM (inactive) | – | 41.9 µM (inactive) | > 100 µM (inactive) | > 100 µM (inactive) | > 100 µM (inactive) | > 100 µM (inactive) | > 100 µM (inactive) | > 100 µM (inactive) | > 100 µM (inactive) | > 100 µM (inactive) | > 100 µM (inactive) | > 100 µM (inactive) | > 100 µM (inactive) | 60.1 µM (inactive) | > 100 µM (inactive)
6 | COc1cc(S(=O)(=O)Nc2ccc(-c3csc(N4C(=O)C(Cl)C4c4cccs4)n3)cc2)ccc1Cl (stereo not drawn) | 19.7 µM (inactive) | > 100 µM | – | 49.2 µM (inactive) | > 100 µM (inactive) | 93.8 µM (inactive) | 39.1 µM (inactive) | 31.7 µM (inactive) | > 100 µM (inactive) | > 100 µM (inactive) | 29.4 µM (inactive) | 72.9 µM (inactive) | 84.3 µM (inactive) | > 100 µM (inactive) | 65 µM (inactive) | 46 µM (inactive) | > 100 µM (inactive) | 4.35 µM (inactive) | 25.8 µM (inactive) | 71.6 µM (inactive)
7 | COc1c(C(=O)NCCN(CCNC(=O)c2cccc(-c3cccc(C(=O)N(C)C)c3OC)c2OC)CCNC(=O)c2cccc(-c3cccc(C(=O)N(C)C)c3OC)c2OC)cccc1-c1cccc(C(=O)N(C)C)c1OC | 14.4 µM (inactive) | > 100 µM | – | 17.3 µM (inactive) | 56.5 µM (inactive) | 30.5 µM (inactive) | 39.4 µM (inactive) | 22.1 µM (inactive) | > 100 µM (inactive) | > 100 µM (inactive) | 43.2 µM (inactive) | 20.9 µM (inactive) | > 100 µM (inactive) | 28.7 µM (inactive) | 17.8 µM (inactive) | 17.8 µM (inactive) | 33.1 µM (inactive) | 21.6 µM (inactive) | 57.3 µM (inactive) | 94.4 µM (inactive)
8 | CC1(C)OCC([C@H]2O[C@@H](CC(=S)NCCCCCCCCCCCCNC(=S)C[C@H]3O[C@@H](C4COC(C)(C)O4)[C@H]4OC(C)(C)O[C@H]43)[C@H]3OC(C)(C)O[C@H]32)O1 (stereo partly drawn) | > 100 µM (inactive) | 73.1 µM | > 100 µM (inactive) | 48.6 µM (inactive) | – | 23.7 µM (inactive) | 30.4 µM (inactive) | – | 17.5 µM (inactive) | 31.6 µM (inactive) | 30.7 µM (inactive) | 70.8 µM (inactive) | 19 µM (inactive) | > 100 µM (inactive) | 58.5 µM (inactive) | > 100 µM (inactive) | 45.7 µM (inactive) | 45.3 µM (inactive) | 83.8 µM (inactive) | 25.6 µM (inactive)
9 | Cc1cccc2c(N)c3cccc(C(=O)NCC[N+](C)(C)Cc4sc(N5CCOCC5)nc4[N+](=O)[O-])c3nc12 | 15.2 µM (inactive) | 1.08 µM | 10.3 µM (inactive) | 2.43 µM (inactive) | 4.82 µM (inactive) | 5.01 µM (inactive) | 0.071 µM (active) | 1.2 µM (inactive) | 0.344 µM (active) | 1.1 µM (active) | 2.26 µM (inactive) | 5.21 µM (inactive) | 4.17 µM (inactive) | 5.86 µM (inactive) | 3.82 µM (inactive) | 1.51 µM (inactive) | 0.444 µM (active) | 1.12 µM (inactive) | 0.547 µM (active) | –
10 | CC(=O)OC1CCn2c1nc1cc([N+](=O)[O-])c(C)cc12 (stereo not drawn) | > 100 µM (inactive) | > 100 µM | – | > 100 µM (inactive) | > 100 µM (inactive) | > 100 µM (inactive) | > 100 µM (inactive) | > 100 µM (inactive) | > 100 µM (inactive) | > 100 µM (inactive) | > 100 µM (inactive) | > 100 µM (inactive) | > 100 µM (inactive) | > 100 µM (inactive) | > 100 µM (inactive) | > 100 µM (inactive) | > 100 µM (inactive) | > 100 µM (inactive) | > 100 µM (inactive) | > 100 µM (inactive)
11 | O=C1O[B-](c2ccccc2)(c2ccccc2)[NH+]2CCCC12 (stereo not drawn) | 16.7 µM (inactive) | 59.3 µM | 44.4 µM (inactive) | > 100 µM (inactive) | > 100 µM (inactive) | 33 µM (inactive) | > 100 µM (inactive) | 31.6 µM (inactive) | 47.4 µM (inactive) | > 100 µM (inactive) | 74 µM (inactive) | > 100 µM (inactive) | 34.6 µM (inactive) | – | 85.1 µM (inactive) | 49 µM (inactive) | > 100 µM (inactive) | 64.7 µM (inactive) | 50.7 µM (inactive) | > 100 µM (inactive)
12 | C=C1C(OC2O[C@@H]3O[C@@]4(C)CC[C@H]5[C@H](C)CC[C@@H](C2=C)[C@@]35O4)O[C@@H]2O[C@@]3(C)CC[C@H]4[C@H](C)CC[C@@H]1[C@@]24O3 (stereo partly drawn) | > 50 µM (inactive) | > 50 µM | > 50 µM (inactive) | > 50 µM (inactive) | > 50 µM (inactive) | > 50 µM (inactive) | > 50 µM (inactive) | > 50 µM (inactive) | > 50 µM (inactive) | > 50 µM (inactive) | > 50 µM (inactive) | > 50 µM (inactive) | > 50 µM (inactive) | – | > 50 µM (inactive) | > 50 µM (inactive) | > 50 µM (inactive) | > 50 µM (inactive) | > 50 µM (inactive) | > 50 µM (inactive)
13 | OCC1CCC(n2cnc3c(O)ncnc32)O1 (stereo not drawn) | > 100 µM (inactive) | > 100 µM | > 1000 µM (inactive) | > 100 µM (inactive) | – | > 100 µM (inactive) | > 100 µM (inactive) | > 100 µM (inactive) | > 100 µM (inactive) | – | > 100 µM (inactive) | > 1000 µM (inactive) | 502 µM (inactive) | – | > 1000 µM (inactive) | > 100 µM (inactive) | > 100 µM (inactive) | > 100 µM (inactive) | > 1000 µM (inactive) | > 100 µM (inactive)
14 | Nc1ccc(/N=N/c2ccccc2)cc1 | 30.6 µM (inactive) | 41.2 µM | 47.9 µM (inactive) | 23.8 µM (inactive) | 84.1 µM (inactive) | 53.5 µM (inactive) | 13.4 µM (inactive) | 46.1 µM (inactive) | 93.1 µM (inactive) | 22.2 µM (inactive) | 61.5 µM (inactive) | 56.1 µM (inactive) | 13.2 µM (inactive) | 10.3 µM (inactive) | 60.3 µM (inactive) | 25.4 µM (inactive) | 28.6 µM (inactive) | – | 64.9 µM (inactive) | 29.1 µM (inactive)
